Assay results reported in patent publication US20040138315A1 (priority 2000, published 2004).

Legend:
[1] = system: adenosine diphosphate-induced aggregation of platelet rich plasma (ADP receptor); test: Adenosine diphosphate, platelet aggregation (404010); assay type: cell-based, rabbit; settings: for ANT. (antagonist response), ADP platelet aggregation / AG. (agonist response), ADP platelet aggregation: 30 μM, platelet rich plasma, rabbit; for AG. (agonist response), ADP platelet aggregation: relative to […] ADP
Description: (§1) Test compounds referred to above were evaluated for inhibition of platelet aggregation induced by adenosine diphosphate, arachidonic acid, phorbol ester and Platelet Activating Factor (PAF) at […]. The following methods were employed in this analysis, and reference compounds for the respective assays are indicated in Appendix 1:
Venous blood obtained from male or female New Zealand derived albino rabbits weighing 2.5-3 kg was mixed with one-tenth volume of trisodium citrate (0.13 M) and centrifuged at room temperature for 10 min at 220 g. Test substance (30 EM)-induced aggregation of the supernatant platelet rich plasma by 50 percent or more (>50%) more relative to 1.2 μM adenosine diphosphate control response at 37° C. as mearsured by an optical aggregometer, indicates possible ADP receptor agonist activity.
At a test substance concentration where no significant agonist activity is seen, ability to reduce the adenosine diphosphate-induced maximum non-reversible aggregation response by 50 percent or more (≧50%) was indicative of ADP receptor antagonist activity.

Cannabinoid CB1 = target: T1, Cannabinoid CB1 (Mus musculus, UniProt P47746); test: Cannabinoid CB1 tissue assay, vas deferens (416000); assay type: cell-based
T1 construct: tissue 416000; host or cells: vas deferens

[2] = system: arachidonic acid-induced aggregation of platelet rich plasma; test: Arachidonic acid, platelet aggregation (412510); assay type: cell-based, rabbit; settings: for ANT. (antagonist response), arachidonic acid platelet aggregation / AG. (agonist response), arachidonic acid platelet aggregation: 30 μM, platelet rich plasma, rabbit; for AG. (agonist response), arachidonic acid platelet aggregation: relative to 100 μM arachidonic acid
Description: as §1
Venous blood obtained from male or female New Zealand derived albino rabbits weighting 2.5-3 kg was mixed with one-tenth volume of trisodeium citrate (0.13M) and centrifuged at room temperature for 10 min at 220 g. Test substance (30 μM)-induced aggregation of the supernatant platelet rich plasma by 50 percent or more (≧50%) within 5 min, relative to 100 μM arachidonic acid response at 37° C. as measured by an optical aggregometer indicates possible agonist activity.
At a test substance concentration where no significant agonist activity is seen, ability to reduce the arachidonic acid-induced maximum non-reversible aggregation response by 50 percent or more (>50%) was indicative of antagonist activity.

cyclooxygenase COX-1 = target: T2, cyclooxygenase COX-1 (Homo sapiens, UniProt P23219); test: Cyclooxygenase COX-1 inhibition in human platelets, PGE2 EIA (116010); assay type: cell-based; settings: screened at 10 μM
T2 construct: host or cells: human platelets
Description: In these assays, in addition to the designations set forth above, IG-05 refers to resorcinol and IG-06 refers to orcinol.
To assess COX-1 inhibition, test compound and/or vehicle was incubated with human platelets (5×10^7/well) for 15 minutes at5 37° C. Calcium ionophore A23187 (10 μM) was added to induce the arachidonic acid cascade. After another 15 minutes incubation at 37° C., PGE2 levels in the supernatant were quantiated using the Amersham EIA kit. Compounds were screened at 10 μM.

[3] = system: PAF-acether-induced aggregation of platelet rich plasma (PAF receptor); test: PAF, platelet aggregation (463010); assay type: cell-based, rabbit; settings: for ANT. (antagonist response), PAF platelet aggregation / AG. (agonist response), PAF platelet aggregation: 30 μM, platelet rich plasma, rabbit; for AG. (agonist response), PAF platelet aggregation: relative to 5 nM PAF-acether
Description: as §1
(§2) Venous blood obtained from male or female New Zealand derived albino rabbits weighing 2.5-3 kg is mixed with one-tenth volume of trisodium citrate (0.13 M) and centrifuged at room temperture for 10 min at 220 g. Test Substance (30 μM)-induced aggregation of the supernatant platelet rich plasma by 50 percent or more (≧50%) within 5 min, relative to control 5 nM platelet activating factor-acether (PAF-acether) response at 37% C as measured by an optical aggregometer, indicates possible PAF receptor agonist activity.
At a test substance concentration where no significant agonist activity is seen, ability to reduce the PAF-acether-induced maximum non-reversible aggregation response by 50 percent or more (≧50%) indicates PAF receptor antagonist activity.

[4] = system: PMA-induced aggregation of platelet rich plasma (phorbol ester receptor); test: Phorbol ester, platelet aggregation (461500); assay type: cell-based, rabbit; settings: for ANT. (antagonist response), phorbol ester platelet aggregation / AG. (agonist response), phorbol ester platelet aggregation: 30 μM, platelet rich plasma, rabbit; for AG. (agonist response), phorbol ester platelet aggregation: relative to PMA 0.5 μM
Description: as §1
as §2, with “temperature” for “temperture”, “substance” for “Substance”, “phorbol myristate acetate (PMA, 0.5 μM)” for “5 nM platelet activating factor-acether (PAF-acether)”, “37° C.” for “37% C”, “phorbol ester” for “PAF”
At a test substance concentration where no significant agonist activity is seen, ability to reduce the PMA (0.5 μM)-induced maximum non-reversible aggregation response by 50 percent or more (>50%) indicates phorbol ester receptor antagonist activity.

thromboxane A2 synthase = target: T3, thromboxane A2 synthase (Oryctolagus cuniculus, UniProt G1TAZ9); test: Thromboxane A2 synthase inhibition, TXB2 radioimmunoassay (194000); assay type: biochemical, rabbit; settings: screened at 100 μM
T3 sequence (G1TAZ9 1-530): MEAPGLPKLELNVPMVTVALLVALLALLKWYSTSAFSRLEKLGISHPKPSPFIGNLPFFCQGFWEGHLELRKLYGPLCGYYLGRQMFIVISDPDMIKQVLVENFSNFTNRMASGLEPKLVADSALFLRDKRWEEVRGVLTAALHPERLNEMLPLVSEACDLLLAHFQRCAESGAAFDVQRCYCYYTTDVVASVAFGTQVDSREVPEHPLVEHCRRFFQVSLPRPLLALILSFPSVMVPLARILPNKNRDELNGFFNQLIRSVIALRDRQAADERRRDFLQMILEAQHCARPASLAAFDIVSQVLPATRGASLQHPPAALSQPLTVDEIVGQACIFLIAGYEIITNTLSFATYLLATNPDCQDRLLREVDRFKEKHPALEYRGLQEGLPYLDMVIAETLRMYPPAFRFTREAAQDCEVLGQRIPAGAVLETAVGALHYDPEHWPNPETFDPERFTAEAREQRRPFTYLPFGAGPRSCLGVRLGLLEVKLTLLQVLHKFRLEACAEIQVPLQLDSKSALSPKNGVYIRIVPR
Description: Test compounds (IG-1 through IG-11) were evaluated for their ability to inhibit cyclooxygenase COX-1, cyclooxygenase COX-2, and thromboxane synthase. In these assays, in addition to the designations set forth above, IG-05 refers to resorcinol and IG-06 refers to orcinol.
To assess Thromboxane A2 synthase, thromboxane A2 synthase isolated from a microsomal fraction of rabbit platelets by conventional centrifugation was used. The test compound and/or vehicle was incubated with 1:200 dilution of thromboxane A2 synthase and 5 ng prostaglandin G2 as substrate in Tris buffer pH 7.5 for 30 minutes at 37° C. The thromboxane A2 formed is immediately converted to thromboxane B2, which was quantitated by a radioimmunoassay. Compounds are screened at 100 μM.

T1 sequence (P47746 whole entry): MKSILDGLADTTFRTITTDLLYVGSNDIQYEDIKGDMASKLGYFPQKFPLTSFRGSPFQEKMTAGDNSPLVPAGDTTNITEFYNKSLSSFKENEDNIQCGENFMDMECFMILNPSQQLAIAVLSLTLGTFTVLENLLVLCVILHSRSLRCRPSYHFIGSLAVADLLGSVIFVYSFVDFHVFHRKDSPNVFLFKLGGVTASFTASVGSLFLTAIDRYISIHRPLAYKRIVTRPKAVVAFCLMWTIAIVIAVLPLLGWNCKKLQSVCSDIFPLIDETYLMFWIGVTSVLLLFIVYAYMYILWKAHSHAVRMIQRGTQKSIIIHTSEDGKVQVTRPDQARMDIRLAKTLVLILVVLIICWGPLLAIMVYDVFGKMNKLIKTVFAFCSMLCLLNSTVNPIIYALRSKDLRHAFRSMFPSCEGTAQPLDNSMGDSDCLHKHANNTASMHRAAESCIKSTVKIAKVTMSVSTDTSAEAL
T2 sequence (P23219 24-599): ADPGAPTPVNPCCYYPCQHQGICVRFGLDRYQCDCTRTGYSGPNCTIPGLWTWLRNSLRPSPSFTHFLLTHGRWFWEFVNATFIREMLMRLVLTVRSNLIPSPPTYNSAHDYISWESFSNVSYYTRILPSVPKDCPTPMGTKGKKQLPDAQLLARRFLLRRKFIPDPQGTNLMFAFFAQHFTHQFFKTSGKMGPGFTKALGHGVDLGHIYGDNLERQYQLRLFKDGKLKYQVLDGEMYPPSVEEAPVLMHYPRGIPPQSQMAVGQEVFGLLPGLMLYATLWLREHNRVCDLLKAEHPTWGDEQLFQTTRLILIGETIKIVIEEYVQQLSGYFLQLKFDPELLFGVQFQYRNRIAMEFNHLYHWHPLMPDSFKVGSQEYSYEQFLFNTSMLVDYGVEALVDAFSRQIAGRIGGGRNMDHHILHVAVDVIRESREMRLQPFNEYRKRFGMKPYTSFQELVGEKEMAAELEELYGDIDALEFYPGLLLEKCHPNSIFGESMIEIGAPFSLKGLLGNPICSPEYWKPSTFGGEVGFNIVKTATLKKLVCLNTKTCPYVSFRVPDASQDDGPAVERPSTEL

CC(C)CCCC(C)(C)c1cc(O)cc(O)c1
melting point: 95 to 96 °C

Nc1nc(Cl)nc2c1ncn2[C@@H]1O[C@H](CO)[C@@H](O)[C@H]1O [2-Chloroadenosine, reference compound]
Concurrent RESP., reference compound, ADP platelet aggregation - Antagonist ([1]; 10 μM, batch 27737): 90

CCCCC/C=C\C/C=C\C/C=C\C/C=C\CCCC(=O)NCCO [Anandamide, reference compound]
Concurrent RESP., reference compound, Cannabinoid CB1 - Agonist (Cannabinoid CB1; 0.1 μM, batch 27098): 100

CCCCC/C=C\C/C=C\C/C=C\C/C=C\CCCC(=O)O [Arachidonic Acid, reference compound]
Concurrent RESP., reference compound, arachidonic acid platelet aggregation - Agonist ([2]; 100 μM, batch 27731): 100

COc1cc(C(C)(C)CCCC(C)C)cc(OC)c1O [IG-2, 4-(1,1,5-trimethylhexyl)-2,6-dimethoxyphenol]
COX-1 inhibition (in words) (cyclooxygenase COX-1): potent inhibitors of COX-1

Cc1cc(O)cc(O)c1 [IG-6, orcinol]
COX-1 inhibition (in words) (cyclooxygenase COX-1): potent inhibitors of COX-1

COc1cc(C(C)(C)CCCC(C)C)cc(OC)c1OC [IG-7, 1-(1,1,5-Trimethylhexyl)-3,4,5-trimethoxybenzene]
AG. (agonist response), Cannabinoid CB1 (Cannabinoid CB1; 30 μM): −106%
ANT. (antagonist response), Cannabinoid CB1 (Cannabinoid CB1; 30 μM): 100%
ANT. (antagonist response), PAF platelet aggregation [3]: 4%
AG. (agonist response), PAF platelet aggregation [3]: 0%
ANT. (antagonist response), phorbol ester platelet aggregation [4]: 9%
AG. (agonist response), phorbol ester platelet aggregation [4]: 0%
ANT. (antagonist response), ADP platelet aggregation [1]: 11%
AG. (agonist response), ADP platelet aggregation [1]: 0%
ANT. (antagonist response), arachidonic acid platelet aggregation [2]: 0%
AG. (agonist response), arachidonic acid platelet aggregation [2]: 0%

CC1=CCC2C(C1)c1c(O)cc(C(C)(C)CCCC(C)C)cc1OC2(C)C (stereo not drawn) [IG-9, 3-Norpentyl-3-(1,1,5-trimethylhexyl)-Δ 8-tetrahydrocannabinol]
ANT. (antagonist response), PAF platelet aggregation [3]: 4%
AG. (agonist response), PAF platelet aggregation [3]: 0%
ANT. (antagonist response), phorbol ester platelet aggregation [4]: 4%
AG. (agonist response), phorbol ester platelet aggregation [4]: 0%
ANT. (antagonist response), ADP platelet aggregation [1]: 7%
AG. (agonist response), ADP platelet aggregation [1]: 0%
ANT. (antagonist response), arachidonic acid platelet aggregation [2]: 0%
AG. (agonist response), arachidonic acid platelet aggregation [2]: 0%

Cc1ccc2c(c1)-c1c(O)cc(C(C)(C)CCCC(C)C)cc1OC2(C)C [IG-11, 3-Norpentyl-3-(1,1,5-trimethylhexyl)cannabinol]
Thromboxane synthase inhibition (in words) (thromboxane A2 synthase): significantly inhibit thromboxane synthase
AG. (agonist response), Cannabinoid CB1 (Cannabinoid CB1; 30 μM): 102%
ANT. (antagonist response), PAF platelet aggregation [3]: 11%
AG. (agonist response), PAF platelet aggregation [3]: 0%
ANT. (antagonist response), phorbol ester platelet aggregation [4]: 8%
AG. (agonist response), phorbol ester platelet aggregation [4]: 0%
ANT. (antagonist response), ADP platelet aggregation [1]: 0%
AG. (agonist response), ADP platelet aggregation [1]: 0%
ANT. (antagonist response), arachidonic acid platelet aggregation [2]: 0%
AG. (agonist response), arachidonic acid platelet aggregation [2]: 0%

COc1ccc2c(c1)c(CC(=O)O)c(C)n2C(=O)c1ccc(Cl)cc1 [Indomethacin, reference compound]
Concurrent RESP., reference compound, arachidonic acid platelet aggregation - Antagonist ([2]; 0.3 μM, batch 27731): 100

CCCCCCCCCCCCCCCCOC[C@H](COP(=O)([O-])OCC[N+](C)(C)C)OC(C)=O [PAF, platelet activating factor-acether, reference compound]
Concurrent RESP., reference compound, PAF platelet aggregation - Agonist ([3]; 5 nM, batch 27927): 100

CCCCCCCCCCCCCC(=O)O[C@@H]1[C@@H](C)[C@@]2(O)[C@@H](C=C(CO)C[C@]3(O)C(=O)C(C)=C[C@@H]23)[C@@H]2C(C)(C)[C@]12OC(C)=O [PMA, phorbol myristate acetate, reference compound]
Concurrent RESP., reference compound, phorbol ester platelet aggregation - Agonist ([4]; 0.5 μM, batch 27699): 100

CN[C@@H]1C[C@H]2O[C@@](C)([C@@H]1OC)n1c3ccccc3c3c4c(c5c6ccccc6n2c5c31)C(=O)NC4 [Staurosporine, reference compound]
Concurrent RESP., reference compound, phorbol ester platelet aggregation - Antagonist ([4]; 3 μM, batch 27699): 100

Cc1nnc2n1-c1sc(CCC(=O)N3CCOCC3)cc1C(c1ccccc1Cl)=NC2 [WEB-2086, reference compound]
Concurrent RESP., reference compound, PAF platelet aggregation - Antagonist ([3]; 0.3 μM, batch 27927): 97
